Measured values published in patent publication US6737383B1, “Herbicidal oxadiazolidines” (priority 1999, dated 2004).

Legend:
Green foxtail = assay: Test D green foxtail; format: in vivo; settings: Rate 500 g/ha; Preemergence; 0 to 100 scale
Method in brief: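 Seeds were sown in greenhouse pots, one species per pot or compartment. Compounds were in a non-phytotoxic solvent mixture with surfactant; preemergence applications went on the sandy loam surface within one day of planting. Injury was rated visually after 14 to 21 days, 0 (none) to 100 (complete control).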

crabgrass = assay: Test A crabgrass; format: in vivo, Digitaria spp.; settings: 0 to 10 scale where 0 is no effect and 10 is complete control
Method in brief: (§1)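 Ratings came from visual comparison with untreated plants about eleven days after treatment, scored 0 for no effect through 10 for complete control. Both soil-drench preemergence and runoff-spray postemergence applications were made at the same time.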

velvetleaf [1] = assay: Test A velvetleaf; format: in vivo, Abutilon theophrasti; settings: 0 to 10 scale where 0 is no effect and 10 is complete control
Method in brief: as §1

barnyardgrass [2] = assay: Test A barnyardgrass; format: in vivo, Echinochloa crus-galli; settings: 0 to 10 scale where 0 is no effect and 10 is complete control
Method in brief: as §1

morningglory = assay: Test A morningglory; format: in vivo, Ipomoea spp.; settings: 0 to 10 scale where 0 is no effect and 10 is complete control
Method in brief: as §1

barnyardgrass [3] = assay: Test C postemergence barnyardgrass; format: in vivo, Echinochloa crus-galli; settings: 0 to 100 scale, 0 no effect, 100 complete control
Experimental: (§2) Compounds evaluated in this test were formulated in a non-phytotoxic solvent mixture which included a surfactant and applied to plants that were grown for various periods of time before treatment (postemergence application). A mixture of sandy loam soil and greenhouse potting mix in a 60:40 ratio was used for the postemergence test.
(§3) Plantings of these crops and weed species were adjusted to produce plants of appropriate size for the postemergence test. All plant species were grown using normal greenhouse practices. Crop and weed species include arrowleaf sida (Sida rhombifolia), barnyardgrass (Echinochloa crus-galli), cocklebur (Xanthium strumarium), common ragweed (Ambrosia elatior), corn (Zea mays), cotton (Gossypium hirsutum), eastern black nightshade (Solanum ptycanthum), fall panicum (Panicum dichotomiflorum), field bindweed (Convolvulus arvensis), giant foxtail (Setaria faberii), hairy beggarticks (Bidens pilosa), ivyleaf morningglory (Ipomoea hederacea), johnsongrass (Sorghum halepense), ladysthumb smartweed (Polygonum persicaria), lambsquarters (Chenopodium album), large crabgrass (Digitaria sanguinalis), purple nutsedge (Cyperus rotundus), redroot pigweed (Amaranthus retroflexus), soybean (Glycine max), surinam grass (Brachiaria decumbens), velvetleaf (Abutilon theophrasti) and wild poinsettia (Euphorbia heterophylla).
(§4) Treated plants and untreated controls were maintained in a greenhouse for approximately 14, to 21 days, after which all treated plants were compared to untreated controls and visually evaluated. Plant response ratings, summarized in Table C, were based upon a 0 to 100 scale where 0 was no effect and 100 was complete control. A dash response (−) means no test result.

velvetleaf [4] = assay: Test C postemergence velvetleaf; format: in vivo, Abutilon theophrasti; settings: 0 to 100 scale, 0 no effect, 100 complete control
Method in brief: (§5)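 Visual ratings on a 0 to 100 scale, where 0 means no effect and 100 complete control, were made versus untreated controls roughly 14 to 21 days after postemergence treatment. Test compounds were formulated in a non-phytotoxic solvent mixture containing a surfactant.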

eastern black nightshade = assay: Test C postemergence eastern black nightshade; format: in vivo, Solanum ptycanthum; settings: 0 to 100 scale, 0 no effect, 100 complete control
Method in brief: as §5

johnsongrass = assay: Test C postemergence johnsongrass; format: in vivo, Sorghum halepense; settings: 0 to 100 scale, 0 no effect, 100 complete control
Experimental: as §2, §3, §4

field bindweed = assay: Test C postemergence field bindweed; format: in vivo, Convolvulus arvensis; settings: 0 to 100 scale, 0 no effect, 100 complete control
Method in brief: as §5

giant foxtail = assay: Test C postemergence giant foxtail; format: in vivo, Setaria faberii; settings: 0 to 100 scale, 0 no effect, 100 complete control
Method in brief: as §5

common ragweed = assay: Test C postemergence common ragweed; format: in vivo, Ambrosia elatior; settings: 0 to 100 scale, 0 no effect, 100 complete control
Experimental: as §2, §3, §4

lambsquarters = assay: Test C postemergence lambsquarters; format: in vivo, Chenopodium album; settings: 0 to 100 scale, 0 no effect, 100 complete control
Experimental: as §2, §3, §4

surinam grass = assay: Test C postemergence surinam grass; format: in vivo, Brachiaria decumbens; settings: 0 to 100 scale, 0 no effect, 100 complete control
Method in brief: as §5

hairy beggarticks = assay: Test C postemergence hairy beggarticks; format: in vivo, Bidens pilosa; settings: 0 to 100 scale, 0 no effect, 100 complete control
Method in brief: as §5

fall panicum = assay: Test C postemergence fall panicum; format: in vivo, Panicum dichotomiflorum; settings: 0 to 100 scale, 0 no effect, 100 complete control
Method in brief: as §5

purple nutsedge = assay: Test C postemergence purple nutsedge; format: in vivo, Cyperus rotundus; settings: 0 to 100 scale, 0 no effect, 100 complete control
Experimental: as §2, §3, §4

soybean = assay: Test C postemergence soybean; format: in vivo, Glycine max; settings: 0 to 100 scale, 0 no effect, 100 complete control
Experimental: as §2, §3, §4

SMILES: Cc1ccccc1-n1c(=O)on(C(=O)N(c2ccccc2)C(C)C)c1=O [Compound 36]
- Plant response rating, Green foxtail (Green foxtail): 100

SMILES: Cc1ccccc1-n1c(=O)on(C(=O)N(c2cc(OC(C)C)c(Cl)cc2Cl)C(C)C)c1=O [Compound 42]
- Plant response rating, Crabgrass (crabgrass; Postemergence, Rate 1000 g/ha): 0
- Plant response rating, Crabgrass (crabgrass; Pre-emergence, Rate 2000 g/ha): 0
- Plant response rating, Velvetleaf (velvetleaf [1]; Postemergence, Rate 1000 g/ha): 0
- Plant response rating, Velvetleaf (velvetleaf [1]; Pre-emergence, Rate 2000 g/ha): 0
- Plant response rating, Barnyardgrass (barnyardgrass [2]; Postemergence, Rate 1000 g/ha): 0
- Plant response rating, Barnyardgrass (barnyardgrass [2]; Pre-emergence, Rate 2000 g/ha): 0
- Plant response rating, Morningglory (morningglory; Postemergence, Rate 1000 g/ha): 0
- Plant response rating, Morningglory (morningglory; Pre-emergence, Rate 2000 g/ha): 0

SMILES: CC(C)N(C(=O)n1oc(=O)n(Cc2ccccc2)c1=O)c1ccccc1 [Compound 94]
- Plant response rating, Barnyardgrass (barnyardgrass [3]; Rate 140 g/ha): 0
- Plant response rating, Barnyardgrass (barnyardgrass [3]; Rate 280 g/ha): 0
- Plant response rating, Barnyardgrass (barnyardgrass [3]; Rate 560 g/ha): 30
- Plant response rating, Barnyardgrass (barnyardgrass [3]; Rate 1120 g/ha): 65
- Plant response rating, Velvetleaf (velvetleaf [4]; Rate 140 g/ha): 5
- Plant response rating, Velvetleaf (velvetleaf [4]; Rate 280 g/ha): 5
- Plant response rating, Velvetleaf (velvetleaf [4]; Rate 560 g/ha): 20
- Plant response rating, Velvetleaf (velvetleaf [4]; Rate 1120 g/ha): 40
- Plant response rating E. blacknightsh (eastern black nightshade; Rate 140 g/ha): 0
- Plant response rating E. blacknightsh (eastern black nightshade; Rate 280 g/ha): 40
- Plant response rating E. blacknightsh (eastern black nightshade; Rate 560 g/ha): 75
- Plant response rating E. blacknightsh (eastern black nightshade; Rate 1120 g/ha): 95
- Plant response rating Johnsongrass (johnsongrass; Rate 140 g/ha): 0
- Plant response rating Johnsongrass (johnsongrass; Rate 280 g/ha): 0
- Plant response rating Johnsongrass (johnsongrass; Rate 560 g/ha): 0
- Plant response rating Johnsongrass (johnsongrass; Rate 1120 g/ha): 0
- Plant response rating Field bindweed (field bindweed; Rate 140 g/ha): 0
- Plant response rating Field bindweed (field bindweed; Rate 280 g/ha): 0
- Plant response rating Field bindweed (field bindweed; Rate 560 g/ha): 0
- Plant response rating Field bindweed (field bindweed; Rate 1120 g/ha): 0
- Plant response rating, Giant foxtail (giant foxtail; Rate 140 g/ha): 0
- Plant response rating, Giant foxtail (giant foxtail; Rate 280 g/ha): 0
- Plant response rating, Giant foxtail (giant foxtail; Rate 560 g/ha): 10
- Plant response rating, Giant foxtail (giant foxtail; Rate 1120 g/ha): 40
- Plant response rating Common ragweed (common ragweed; Rate 140 g/ha): 0
- Plant response rating Common ragweed (common ragweed; Rate 280 g/ha): 0
- Plant response rating Common ragweed (common ragweed; Rate 560 g/ha): 5
- Plant response rating Common ragweed (common ragweed; Rate 1120 g/ha): 5
- Plant response rating Lambsquarters (lambsquarters; Rate 140 g/ha): 0
- Plant response rating Lambsquarters (lambsquarters; Rate 280 g/ha): 5
- Plant response rating Lambsquarters (lambsquarters; Rate 560 g/ha): 10
- Plant response rating Lambsquarters (lambsquarters; Rate 1120 g/ha): 30
- Plant response rating Surinam grass (surinam grass; Rate 140 g/ha): 0
- Plant response rating Surinam grass (surinam grass; Rate 280 g/ha): 0
- Plant response rating Surinam grass (surinam grass; Rate 560 g/ha): 0
- Plant response rating Surinam grass (surinam grass; Rate 1120 g/ha): 10
- Plant response rating H. beggarticks (hairy beggarticks; Rate 140 g/ha): 0
- Plant response rating H. beggarticks (hairy beggarticks; Rate 280 g/ha): 0
- Plant response rating H. beggarticks (hairy beggarticks; Rate 560 g/ha): 5
- Plant response rating H. beggarticks (hairy beggarticks; Rate 1120 g/ha): 20
- Plant response rating, Green foxtail (Green foxtail): 100
- Plant response rating Fall panicum (fall panicum; Rate 140 g/ha): 0
- Plant response rating Fall panicum (fall panicum; Rate 280 g/ha): 0
- Plant response rating Fall panicum (fall panicum; Rate 560 g/ha): 10
- Plant response rating Fall panicum (fall panicum; Rate 1120 g/ha): 70
- Plant response rating, Purple nutsedge (purple nutsedge; Rate 140 g/ha): 0
- Plant response rating, Purple nutsedge (purple nutsedge; Rate 280 g/ha): 0
- Plant response rating, Purple nutsedge (purple nutsedge; Rate 560 g/ha): 0
- Plant response rating, Purple nutsedge (purple nutsedge; Rate 1120 g/ha): 0
- Plant response rating, Soybean (soybean; Rate 140 g/ha): 15
- Plant response rating, Soybean (soybean; Rate 280 g/ha): 15
- Plant response rating, Soybean (soybean; Rate 560 g/ha): 30
- Plant response rating, Soybean (soybean; Rate 1120 g/ha): 55

SMILES: Cc1ccc(N(C(=O)n2oc(=O)n(C(C)C)c2=O)C(C)C)cc1 [Compound 132]
- Plant response rating, Barnyardgrass (barnyardgrass [3]; Rate 140 g/ha): 50
- Plant response rating, Barnyardgrass (barnyardgrass [3]; Rate 280 g/ha): 50
- Plant response rating, Barnyardgrass (barnyardgrass [3]; Rate 560 g/ha): 80
- Plant response rating, Barnyardgrass (barnyardgrass [3]; Rate 1120 g/ha): 95
- Plant response rating, Velvetleaf (velvetleaf [4]; Rate 140 g/ha): 0
- Plant response rating, Velvetleaf (velvetleaf [4]; Rate 280 g/ha): 0
- Plant response rating, Velvetleaf (velvetleaf [4]; Rate 560 g/ha): 0
- Plant response rating, Velvetleaf (velvetleaf [4]; Rate 1120 g/ha): 0
- Plant response rating E. blacknightsh (eastern black nightshade; Rate 140 g/ha): 0
- Plant response rating E. blacknightsh (eastern black nightshade; Rate 280 g/ha): 0
- Plant response rating E. blacknightsh (eastern black nightshade; Rate 560 g/ha): 0
- Plant response rating E. blacknightsh (eastern black nightshade; Rate 1120 g/ha): 0
- Plant response rating Johnsongrass (johnsongrass; Rate 140 g/ha): 0
- Plant response rating Johnsongrass (johnsongrass; Rate 280 g/ha): 0
- Plant response rating Johnsongrass (johnsongrass; Rate 560 g/ha): 0
- Plant response rating Johnsongrass (johnsongrass; Rate 1120 g/ha): 60
- Plant response rating Field bindweed (field bindweed; Rate 140 g/ha): 0
- Plant response rating Field bindweed (field bindweed; Rate 280 g/ha): 0
- Plant response rating Field bindweed (field bindweed; Rate 560 g/ha): 40
- Plant response rating Field bindweed (field bindweed; Rate 1120 g/ha): 70
- Plant response rating, Giant foxtail (giant foxtail; Rate 140 g/ha): 0
- Plant response rating, Giant foxtail (giant foxtail; Rate 280 g/ha): 0
- Plant response rating, Giant foxtail (giant foxtail; Rate 560 g/ha): 0
- Plant response rating, Giant foxtail (giant foxtail; Rate 1120 g/ha): 0
- Plant response rating Common ragweed (common ragweed; Rate 140 g/ha): 0
- Plant response rating Common ragweed (common ragweed; Rate 280 g/ha): 0
- Plant response rating Common ragweed (common ragweed; Rate 560 g/ha): 0
- Plant response rating Common ragweed (common ragweed; Rate 1120 g/ha): 0
- Plant response rating Lambsquarters (lambsquarters; Rate 140 g/ha): 0
- Plant response rating Lambsquarters (lambsquarters; Rate 280 g/ha): 0
- Plant response rating Lambsquarters (lambsquarters; Rate 560 g/ha): 0
- Plant response rating Lambsquarters (lambsquarters; Rate 1120 g/ha): 0
- Plant response rating Surinam grass (surinam grass; Rate 140 g/ha): 0
- Plant response rating Surinam grass (surinam grass; Rate 280 g/ha): 0
- Plant response rating Surinam grass (surinam grass; Rate 560 g/ha): 0
- Plant response rating Surinam grass (surinam grass; Rate 1120 g/ha): 30
- Plant response rating H. beggarticks (hairy beggarticks; Rate 140 g/ha): 0
- Plant response rating H. beggarticks (hairy beggarticks; Rate 280 g/ha): 0
- Plant response rating Fall panicum (fall panicum; Rate 140 g/ha): 0
- Plant response rating Fall panicum (fall panicum; Rate 280 g/ha): 30
- Plant response rating Fall panicum (fall panicum; Rate 560 g/ha): 50
- Plant response rating Fall panicum (fall panicum; Rate 1120 g/ha): 50
- Plant response rating, Purple nutsedge (purple nutsedge; Rate 140 g/ha): 0
- Plant response rating, Purple nutsedge (purple nutsedge; Rate 280 g/ha): 0
- Plant response rating, Purple nutsedge (purple nutsedge; Rate 560 g/ha): 0
- Plant response rating, Purple nutsedge (purple nutsedge; Rate 1120 g/ha): 0
- Plant response rating, Soybean (soybean; Rate 140 g/ha): 5
- Plant response rating, Soybean (soybean; Rate 280 g/ha): 20
- Plant response rating, Soybean (soybean; Rate 560 g/ha): 30
- Plant response rating, Soybean (soybean; Rate 1120 g/ha): 40
